{"source": "paper PMC4533939", "about": "“Targeting lysyl oxidase for molecular imaging in breast cancer” (Breast Cancer Research : BCR, 2015)", "key": {"EMT-6 tumors": {"system": "EMT-6 tumors", "assay_type": "in vivo, BALB/c mice", "method": "Murine EMT-6 cells (5 × 10^6 cells in 100 μl of PBS) were injected into the upper left flank of female BALB/c mice (20–24 g; Charles River, Saint-Constant, QC, Canada). The EMT-6 tumor-bearing mice were imaged and used for ex vivo biodistribution experiments after allowing 7–10 days for the tumors to reach sizes of about 600 mm^3.\n(§1) PET experiments were performed with [^18F]FB-GGGDPKGGGGG-NH2 injected into EMT-6 tumor-bearing BALB/c mice or into NIH-III mice bearing subcutaneous MCF-7 or MDA-MB-231 tumors, and tracer uptake was analyzed in vivo. For radiotracer injection, a catheter was placed into the tail vein of the mouse. While under anesthesia, mice were placed in the prone position with the medial axis parallel to the axial axis of the scanner and the thorax, abdomen and hind legs placed into the center of the field of view of the microPET R4 or Inveon PET/computed tomography (CT) scanner (Siemens Preclinical Solutions, Knoxville, TN, USA). A transmission scan for attenuation correction was not acquired. [^18F]FB-GGGDPKGGGGG-NH2 (4–5 MBq) in 100–150 μl of saline was injected intravenously through the catheter into the tail vein. The effects of BAPN were analyzed after intraperitoneal injection of 2 mg (100 mg/kg) of the inhibitor 4 h and 24 h before radiotracer injection. For the different experimental protocols, either an emission scan 60 min postinjection (dynamic experiments) was performed immediately or a 20 min postinjection PET scan acquisition (static scan followed by CT scan) was performed. Depending on the experimental setup, data acquisition continued for either 60 min or 20 min in three-dimensional list mode. The dynamic list mode data were sorted into sinograms with 53 time frames (10×2 s, 8×5 s, 6×10 s, 6×20 s, 8×60 s, 10×120 s and 5×300 s). The frames were reconstructed using ordered subset expectation maximization or maximum a posteriori reconstruction modes.\n(§2) The pixel size was 0.085×0.085×0.12 cm, and the resolution in the center field of view was 1.8 mm. Correction for partial volume effects was not performed. The image files were further processed using the ROVER v2.0.51 software (ABX, Radeberg, Germany). Masks defining three-dimensional regions of interest (ROIs) were set, and the ROIs were defined by 50 % thresholding. Mean standardized uptake values (SUVmean = [activity/ml tissue]/[injected activity/body weight], mL/kg] were calculated for each ROI. Time–activity curves (TACs) were generated for the dynamic scans only. All semiquantified PET data are presented as mean ± SEM."}, "LOX": {"system": "LOX", "details": "peptidyl lysine oxidation by LOX; cited from earlier work", "from_the_text": "An alternative approach for specific targeting of LOX involves the use of oligopeptides. Nagan and Kagan have investigated collagen-like structures to explore peptide sequences derived from the lysine-containing N- and C-terminal telopeptides of collagen concerning their enzymatic conversion by LOX. […] It was concluded that the aspartic acid located two positions ..."}, "[1]": {"set-up": "species or system BALB/c mice", "details": "mouse, in vivo", "method": "(§3) Normal BALB/c mice received injections of approximately 25 MBq of [^18F]FB-GGGDPKGGGG. Venous blood samples were taken at 5, 15, 30 and 60 min postinjection and processed for determination of metabolic stability in vivo. Blood cells were separated by centrifugation (13,000 rpm for 5 min). Proteins in the supernatant were precipitated by addition of 2 volume parts of methanol followed by a second centrifugation step (13,000 rpm for 5 min). Radioactivity in blood components (cells, proteins and plasma) was measured using a Wallac Wizard 1480 3 automatic gamma counter. The clear plasma supernatant was examined using a Shimadzu HPLC system (Shimadzu Scientific Instruments, Columbia, MD, USA) equipped with a DGU-20A5 degasser, a SIL-20AHT autosampler, a LC-20AT pump, a SPD-M20A photo diode array detector and a RAMONA* radiodetector (Raytest Isotopenmessgeraete, Straubenhardt, Germany). The samples were analyzed using a Phenomenex Luna 10-μm C18(2) 100 Å, 250×4.6-mm column and the following gradients with water/0.2 % TFA as solvent A and acetonitrile as solvent B: 0–3 min 10 % B, 10 min 30 % B, 17 min 50 % B, 23 min 70 % B and 27–30 min 90 % B. The flow was constant at 1 ml/min, and the ultraviolet signals were measured at 210 nm and 254 nm."}, "[2]": {"system": "breast cancer tumor models", "assay_type": "in vivo, mice", "details": "for tumor-to-blood ratio / tumor-to-muscle ratio: tumor model not stated", "method": "as §1, §2"}, "MDA-MB-231 tumors": {"system": "MDA-MB-231 tumors", "assay_type": "in vivo, NIH-III nu/nu mice", "method": "(§4) The pellet was implanted subcutaneously into the upper right flank to provide a constant level of 17β-estradiol needed by the estrogen receptor (ER)-positive MCF-7 cells. Tumors were imaged 20–30 days after injection, with the tumors reaching sizes ranging from 200 to 400 mm^3. Human MDA-MB-231 cells (1×10^6 cells in 100 μl of PBS) were also injected subcutaneously into 8–10-week-old female NIH-III nu/nu mice. After 7–9 days, they reached a size of approximately 500 mm^3 and were suitable for the PET experiments.\nas §1, with “Depending on the experimental setup, data acquisition continued for either 60 min or 20 min in three-dimensional list mode. The dynamic list mode data were sorted into sinograms with 53 time frames (10×2 s, 8×5 s, 6×10 s, 6×20 s, 8×60 s, 10×120 s and 5×300 s). The frames were reconstructed using ordered subset expectation maximization or maximum a posteriori reconstruction modes.” left out\n(§5) The pixel size was 0.085×0.085×0.12 cm, and the resolution in the center field of view was 1.8 mm. […] Mean standardized uptake values (SUVmean = [activity/ml tissue]/[injected activity/body weight], mL/kg] were calculated for each ROI. Time–activity curves (TACs) were generated for the dynamic scans only. All semiquantified PET data are presented as mean ± SEM."}, "MCF-7 tumors": {"system": "MCF-7 tumors", "assay_type": "in vivo, NIH-III nu/nu mice", "method": "Human MCF-7 cells, which form xenografts in female athymic mice, were injected subcutaneously (2–5×10^6 cells in 100 μl of PBS) into 8–10-week-old female NIH-III nu/nu mice (Charles River, Wilmington, MA, USA). Before injection of the cells, all mice received a 0.72-mg pellet containing 17β-estradiol in a 60-day release preparation (Innovative Research of America, Sarasota, FL, USA).\nas §4\nPET experiments were performed with [^18F]FB-GGGDPKGGGGG-NH2 injected into EMT-6 tumor-bearing BALB/c mice or into NIH-III mice bearing subcutaneous MCF-7 or MDA-MB-231 tumors, and tracer uptake was analyzed in vivo. For radiotracer injection, a catheter was placed into the tail vein of the mouse. While under anesthesia, mice were placed in the prone position with the medial axis parallel to the axial axis of the scanner and the thorax, abdomen and hind legs placed into the center of the field of view of the microPET R4 or Inveon PET/computed tomography (CT) scanner (Siemens Preclinical Solutions, Knoxville, TN, USA). A transmission scan for attenuation correction was not acquired. […] The effects of BAPN were analyzed after intraperitoneal injection of 2 mg (100 mg/kg) of the inhibitor 4 h and 24 h before radiotracer injection. […]\nas §5"}, "[3]": {"assay": "Radio-HPLC of plasma samples and quality control (retention time)", "assay_type": "physicochemical", "details": "Luna C18(2) 250×4.6 mm, water/0.2 % TFA - acetonitrile gradient, 1 ml/min; two more lipophilic radiometabolites eluted at 13.2 and 14.3 min", "method": "as §3"}}, "note": "Read-outs that look alike come from different tables or passages of the source."}
{"molecule": "N#CCCN", "note": "[BAPN, β-aminopropionitrile, reference compound]", "values": [{"measurement": "reduction of maximum tumor uptake of the radiotracer (SUV5min)", "setting": "EMT-6 tumors; EMT-6 tumor, 100 mg/kg BAPN (about 2 mg per mouse) i.p. 4 h before [18F]FB-GGGDPKGGGGG-NH2", "value": "approximately 33%"}, {"measurement": "effect on radiotracer tumor uptake at 60 min postinjection", "setting": "EMT-6 tumors; EMT-6 tumor, BAPN predosing 4 h or 24 h", "value": "no effect"}, {"measurement": "effect on radioactivity in muscle tissue", "setting": "EMT-6 tumors; muscle of EMT-6 tumor-bearing mice, BAPN predosing", "value": "unaltered"}]}
{"molecule": "Ac-GGGDPKGGGGG-NH2 [oligopeptide substrate with favorable kinetic properties for LOX-mediated peptidyl lysine oxidation (Nagan and Kagan)]", "values": [{"measurement": "Michaelis constant (Km) among several collagen N-telopeptide derivatives", "setting": "LOX", "value": "lowest"}, {"measurement": "kcat/Km among several collagen N-telopeptide derivatives", "setting": "LOX", "value": "highest"}]}
{"molecule": "[^18F]FB-GGGDPKGGGGG-NH2 [[^18F]fluorobenzoate-GGGDPKGGGGG-NH2, 18F-labeled LOX-targeting oligopeptide PET radiotracer]", "values": [{"measurement": "share of injected radiotracer found in the plasma compartment", "setting": "[1]", "value": "> 60", "unit": "%"}, {"measurement": "tumor-to-blood ratio", "setting": "[2]; 5 min postinjection", "value": 0.3}, {"measurement": "tumor-to-muscle ratio", "setting": "[2]; 5 min postinjection", "value": 2.7}, {"measurement": "tumor-to-blood ratio", "setting": "[2]; 60 min postinjection", "value": 2.3}, {"measurement": "tumor-to-muscle ratio", "setting": "[2]; 60 min postinjection", "value": 1}, {"measurement": "time to maximum SUV in tumor", "setting": "[2]; mouse, in vivo", "value": "3 to 5", "unit": "min"}, {"measurement": "SUV5min, tumor", "setting": "MDA-MB-231 tumors; MDA-MB-231 tumor, 4-5 MBq i.v., 5 min postinjection, mean ± SEM, n = 5", "value": "0.50±0.09"}, {"measurement": "SUV60min, tumor", "setting": "MDA-MB-231 tumors; MDA-MB-231 tumor, 60 min postinjection, mean ± SEM, n = 5", "value": "0.12±0.02"}, {"measurement": "SUV60min, muscle tissue", "setting": "MDA-MB-231 tumors; mouse, in vivo", "value": "0.04±0.004"}, {"measurement": "SUV5min, tumor", "setting": "MCF-7 tumors; MCF-7 tumor, 4-5 MBq i.v., 5 min postinjection, mean ± SEM, n = 6", "value": "0.59±0.03"}, {"measurement": "SUV60min, tumor", "setting": "MCF-7 tumors; MCF-7 tumor, 60 min postinjection, mean ± SEM, n = 6", "value": "0.12±0.02"}, {"measurement": "SUV60min, muscle tissue", "setting": "MCF-7 tumors; mouse, in vivo", "value": "0.05±0.008"}, {"measurement": "HPLC retention time", "setting": "[3]", "value": 12.2, "unit": "min"}, {"measurement": "SUV5min, tumor", "setting": "EMT-6 tumors; EMT-6 tumor, 4-5 MBq i.v., 5 min postinjection, mean ± SEM, n = 4", "value": "0.63±0.08"}, {"measurement": "SUV60min, tumor, in the absence and presence of BAPN", "setting": "EMT-6 tumors; EMT-6 tumor, 60 min postinjection, control and BAPN-predosed groups", "value": "0.19–0.21"}, {"measurement": "SUV60min, tumor", "setting": "EMT-6 tumors; EMT-6 tumor, 60 min postinjection, mean ± SEM, n = 4", "value": "0.19±0.02"}, {"measurement": "SUV5min, tumor, in the presence of BAPN", "setting": "EMT-6 tumors; EMT-6 tumor, BAPN i.p. 24 h before radiotracer, mean ± SEM, n = 7, p > 0.05", "value": "0.52±0.05"}, {"measurement": "SUV60min, muscle tissue", "setting": "EMT-6 tumors; mouse, in vivo", "value": "0.03±0.004"}]}
